Data as given in patent US4308274A, “N-Alkylsulfonyl-, N-arylsulfonyl-, and N-aminosulfonylaminosulfinylcarbamate esters” (priority 1979, dated 1981).
Where two headings read alike, the source gives them in different places.

Experiments:
[1] = mammalian toxicity against Swiss white mice (oral); conditions: mouse, in vivo, corn oil carrier
Procedure: Mammalian toxicity was determined against Swiss white mice.

[2] = test system: house flies, Musca domestica; assay: insecticidal activity against house flies (topical, 24 hours mortality); assay type: in vivo; conditions: read-out: House flies LD50
Procedure: Representative carbamate esters of the invention were tested for insecticidal activity against house flies, Musca domestica. Stock 1% concentrated solutions for each of the test compounds were made in acetone, and such solutions diluted with acetone to a concentration of 0.001-0.1%. House flies were treated topically on the notum by 1 μl of each of the diluted acetone solutions and percent mortality was counted 24 hours after application. The insects were held at a constant temperature of 60° F. Results are given in μg/g.

[3] = topical on the notum, 1 μl acetone solution, percent mortality 24 hours after application, 60° F

Row | SMILES | LD50 [1] [mg/kg] | LD50 [2, 3] [mg/kg] | LD50 ([2]; topical, 24 h) [mg/kg]
1 | CCN([S+]([O-])N(C)C(=O)ON=C(C)SC)S(C)(=O)=O (stereo not drawn) [VIII, S-methyl N-[N'-(N"-methanesulfonyl-N"-ethylaminosulfinyl)-N'-methylcarbamoyloxy]thioacetimidate] | 250 | 25 | –
2 | CC(C)c1cccc(OC(=O)N(C)[S+]([O-])N(C)S(=O)(=O)c2ccccc2)c1 (stereo not drawn) [III, 3-isopropylphenyl N-(N'-benzenesulfonyl-N'-methylaminosulfinyl)-N-methylcarbamate] | 150 | – | 95
3 | CCN([S+]([O-])N(C)C(=O)Oc1cccc(C(C)C)c1)S(C)(=O)=O (stereo not drawn) [VII, 3-isopropylphenyl N-(N'-methanesulfonyl-N'-ethylaminosulfinyl)-N-methylcarbamate] | 200 | – | 90
4 | CCN([S+]([O-])N(C)C(=O)Oc1cccc2c1OC(C)(C)C2)S(=O)(=O)N1CCOCC1 (stereo not drawn) [Example XI, 2,3-Dihydro-2,2-dimethylbenzofuranyl-7-N-(N'-morpholinosulfonyl-N'-ethylaminosulfinyl)-N-methylcarbamate] | – | – | 10
5 | CCN([S+]([O-])N(C)C(=O)Oc1cccc2c1OC(C)(C)C2)S(C)(=O)=O (stereo not drawn) [VI, 2,3-dihydro-2,2-dimethylbenzofuranyl-7 N-(N'-methanesulfonyl-N'-ethylaminosulfinyl)-N-methylcarbamate] | – | – | 12.5
6 | CSC(C)=NOC(=O)N(C)[S+]([O-])N(C)S(=O)(=O)c1ccccc1 (stereo not drawn) [V, S-methyl N-[N'-(N"-benzenesulfonyl-N"-methylaminosulfinyl)-N'-methylcarbamoyloxy]thioacetimidate] | 86 | 17.5 | –
7 | CCCCN(CCCC)S(=O)(=O)N(C)[S+]([O-])N(C)C(=O)ON=C(C)SC (stereo not drawn) [Example XII, S-methyl N-[N'-(N"-dibutylaminosulfonyl-N"-methylaminosulfinyl)-N'-methylcarbamoyloxy]thioacetimidate] | 100 | 9 | –
8 | CN(C(=O)Oc1cccc2c1OC(C)(C)C2)[S+]([O-])N(C)S(=O)(=O)c1ccccc1 (stereo not drawn) [Example I, 2,3-dihydro-2,2-dimethylbenzofuranyl-7N-(N'-benzenesulfonyl-N'-methylaminosulfinyl)-N-methylcarbamate] | 35 | – | 9.5
9 | CCCCN(CCCC)S(=O)(=O)N(C)[S+]([O-])N(C)C(=O)Oc1cccc2c1OC(C)(C)C2 (stereo not drawn) [Example IX, 2,3-dihydro-2,2-dimethylbenzofuranyl-7 N-(N'-dibutylaminosulfonyl-N'-methylaminosulfinyl)-N-methylcarbamate] | 25 | – | 12
10 | CN(C(=O)Oc1cccc2ccccc12)[S+]([O-])N(C)S(=O)(=O)c1ccccc1 (stereo not drawn) [IV, 1-naphthyl N-(N'-benzenesulfonyl-N'-methylaminosulfinyl)-N-methylcarbamate] | > 500 | – | 450
11 | CN(C(=O)Oc1cccc2c1OC(C)(C)C2)[S+]([O-])N(C)S(=O)(=O)N1CCOCC1 (stereo not drawn) [Example X, 2,3-Dihydro-2,2-dimethylbenzofuranyl-7N-[N'-(N"-morpholinosulfonyl)-N'-methylaminosulfinyl]N-methylcarbamate] | – | – | 13
12 | CC(C)Oc1ccccc1OC(=O)N(C)[S+]([O-])N(C)S(=O)(=O)c1ccccc1 (stereo not drawn) [II, 2-isopropoxyphenyl N-(N'-benzenesulfonyl-N'-methylaminosulfinyl)-N-methylcarbamate] | 250 | – | 55
